Measurements: article PMC9612222, “Comparative Evaluation of the Antiglycation and Anti-α-Glucosidase Activities of Baicalein, Baicalin (Baicalein 7-O-Glucuronide) and the Antidiabetic Drug Metformin” (Pharmaceutics, 2022)
Where two headings read alike, the source gives them in different places. Marks after values point to notes of the source that are not given here. One block for each compound: values may come before it.

Columns and labels:
[1] = DPPH radical scavenging assay; conditions: for pD2 (−log EC50) antiradical potency: 70 µM DPPH, 60 min
Experimental: The free radical scavenging activity of the samples was measured using the DPPH^• method. Sample solutions were prepared and added to 70 µM DPPH^•; the mixtures were kept in the dark for 60 min and absorbance was read at 517 nm using a Beckman Coulter DU 8005 spectrophotometer (Fullerton, CA, USA). The radical scavenging capacity was expressed as a percentage effect.

[2] = GK peptide–ribose assay (peptide cross–linking); conditions: 2 days; for reduction of GK peptide cross–linking (in words): 1–100 µM
Experimental: The N–acetyl–glycyl–lysine methyl ester (GK) peptide–ribose assay was performed with some modifications to a published method. Briefly, GK peptide (27 mg/mL), a synthetic model peptide, was incubated with 40 mg/mL (0.27 M) D–ribose in sodium phosphate buffer (pH 7.4) and test samples were added at final concentrations ranging from 1.0–100 μM. After 48 h of incubation, fluorescence was read at 355 and 460 nm for excitation and emission wavelengths, respectively, with a PerkinElmer Victor Nivo microplate reader (Waltham, MA, USA). The fluorescence measurement allows the calculation of GK peptide glycation inhibition as a percentage difference between the control condition and glycation in the presence of the inhibitor. Aminoguanidine (2.5 mM, AG) was used as a positive control.

[3] = system: α–glucosidase (EC 3.2.1.20, Saccharomyces cerevisiae type I); format: biochemical; conditions: for inhibition of α–glucosidase activity: 50 µM compound
Experimental: The inhibitory activity of baicalein and baicalin was studied using the yeast α–glucosidase assay, using pNPG as a substrate. The enzyme acts by hydrolyzing pNPG into […] and p–nitrophenol (yellow); the reaction was detected at different inhibitor concentrations by variation in chromatic intensity. Acarbose ([…]) was used as a positive control. Each sample was incubated with several α–glucosidase concentrations (0.035, 0.05, 0.07 and 0.1 µM) in PBS solutions (pH 6.8) for 10 min, at 37 °C. The reaction started with the addition of pNPG. Absorbance values were detected at 405 nm for 60 min, using a PerkinElmer Victor Nivo microplate reader spectrophotometer (Waltham, MA, USA). The half–maximal inhibitory concentration (IC50) was estimated by the plot of relative enzyme activity versus inhibitor concentration. The type of enzyme inhibition exerted by baicalein was evaluated from kinetic studies using different substrate concentrations (0.5, 1.0, 1,5 and 2.0 mM pNPG) through the Michaelis–Menten and Lineweaver–Burk plots.

BSA [4] = experiment: BSA assay (AGE formation by fluorescence); set-up: species or system bovine; conditions: for concentration inhibiting glyoxal-induced BSA glycation: 50 mg/mL BSA + 0.003 M glyoxal
Experimental: Glycated BSA was obtained according to a previously reported method. Briefly, AGEs were detected using BSA (50 mg/mL, pH 7.4), as protein substrate, and glucose (0.8 M), glyoxal (0.003 M) or ribose (0.1 M), as glycation agents. […] The fluorescence intensity was measured at an excitation wavelength of 355 nm and an emission wavelength of 460 nm with a PerkinElmer Victor Nivo microplate reader (Waltham, MA, USA). Inhibition of AGE formation was calculated as the fluorescence difference between glycation under the control condition and in the presence of each inhibitor. Aminoguanidine (2.5 mM, AG) was used as a positive control.

BSA [5] = experiment: Carbonyl content assay (BSA–ribose glycation); set-up: species or system bovine; conditions: 50 mg/mL BSA + 0.1 M ribose; for inhibition of carbonyl increase: not concentration dependent
Experimental: The total protein–bound carbonyl content was determined by derivatization of the carbonyl group with 2,4–dinitrophenylhydrazine (DNPH), which leads to the formation of a stable dinitrophenylhydrazone product, which was monitored spectrophotometrically at 375 nm with a PerkinElmer Victor Nivo microplate reader (Waltham, MA, USA). Glycated BSA samples were mixed with DNPH solution (10 mM in 2.0 M HCl) for 1 h at 37 °C in the dark. The proteins were precipitated with 20% trichloroacetic acid. The mixture was centrifuged at 10,000× g rpm, 10 min at 4 °C, to obtain a pellet and the supernatant was removed. DNPH was removed by extracting the pellet twice using a solution of ethyl acetate/ethanol (1:1). Lastly, the pellet was dissolved in guanidine hydrochloride (6 M) before reading the absorbance at 375 nm. The concentration of DNPH derivatized proteins was determined by the molar extinction coefficient of 22,000 M^−1 cm^−1 [64]. The protein concentration was measured using a BCA assay, and the protein carbonyl concentration was expressed as nmol/mg of protein. Aminoguanidine (2.5 mM, AG) was used as a positive control.

ORAC assay = conditions: 5.0 µM compound
Experimental: The radical oxygen absorption capacity (ORAC) assay was performed as previously described. Briefly, trolox was prepared in phosphate buffer over a concentration range of 6.25 to 50 µM. In 24–well plates, 1.5 mL of fluorescein (0.08 µM) was added, followed by 250 µL of trolox for the control, 250 µL of buffer for the blank, and 250 µL of each inhibitor (5.0 µM). After 10 min of incubation, at 37 °C, 250 µL of 0.15 M AAPH was added. Successively, the PerkinElmer Victor Nivo microplate reader (Waltham, MA, USA) was settled for a fluorescence kinetic reading at 37 °C for one hour, with excitation and emission wavelengths, respectively, of 485 and 530 nm. The results were expressed in TEAC (trolox equivalent antioxidant capacity, TE µmol/µmol compound).

rat α–glucosidase = conditions: cited from earlier work
HT–29 cells [6] = experiment: MTT cell viability assay; format: cell-based, human
Experimental: Cell viability was assessed with the MTT assay. HT–29 cells were seeded in a 96–well plate at a density of 5000 cells in each well and allowed to grow overnight. The cells were treated with various concentrations of the substances. After 24 h of incubation, an aliquot of MTT solution was added to each well, to reach the final concentration of 500 μg/mL. Subsequently, after the MTT reduction by cellular enzymes, the medium was removed and the insoluble formazan salts were solubilized with 2–propanol. The absorbance of each purple formazan solution was measured using a PerkinElmer Victor Nivo microplate reader (Waltham, MA, USA), at a wavelength of 520 nm.

HT–29 cells [7] = experiment: HT–29 uptake assay (HPLC–DAD); format: in vitro ADME, human; conditions: 1 to 50 µM in cell medium, 30 min–3 h
Experimental: To evaluate the cellular uptake of compounds, a previously described method was used. Briefly, HT–29 cells were seeded in a 6–well plate at a density of 500,000 cells in each well in a complete medium and allowed to grow until confluence for 48 h, at 37 °C (Figure 11). […] After incubation, an aliquot of the extracellular solution was taken from each well and stored at −20 °C for further analysis. The medium was then removed, the cells were washed with PBS and prepared for the following steps: (i) protein quantification, cells were lysed with 200 μL of lysis buffer and the wells were washed with 200 μL of PBS; and (ii) evaluation of cell uptake, cells were gently scraped with PBS, centrifuged at 1250× g rpm for 5 min, and added with 500 μL of 80% v/v methanolic solution in water/0,1% v/v acetic acid to extract intracellular content. The samples were kept on ice for 15 min, then sonicated and centrifuged at 20,000× g rpm for 10 min. […]
Chromatographic analyses were performed with an HPLC instrument (Waters Corporation, Milford, DE, USA) equipped with a 1525 binary HPLC pump and a 2998 photodiode array detector. […] Peaks were detected in the range of 210–400 nm. […] The amount of each compound was calculated using a standard calibration curve. The protein content of the lysate was detected using the Lowry protein assay, to express the results as nmol/mg protein.

α–glucosidase = conditions: cited from earlier work
[8] = 50 mg/mL BSA + 0.1 M ribose, 5 days
[9] = 50 mg/mL BSA + 0.8 M glucose, 7 days
[10] = α–glucosidase 0.035 µM, 2 mM pNPG
[11] = α–glucosidase 0.05 µM, 2 mM pNPG
[12] = α–glucosidase 0.07 µM, 2 mM pNPG
[13] = α–glucosidase 0.10 µM, 2 mM pNPG

Structure (SMILES): O=C(O)[C@H]1O[C@@H](Oc2cc3oc(-c4ccccc4)cc(=O)c3c(O)c2O)[C@H](O)[C@@H](O)[C@@H]1O [baicalin, 7–β–D–glucuronic acid of 5,6–trihydroxyflavone]
pD2 (−log EC50) antiradical potency [1]: 4.89 ± 0.03
reduction of GK peptide cross–linking (in words) [2]: only slightly and not significantly reduced
effect on α–glucosidase activity (in words) ([3]; 0.05 µM enzyme, 2 mM pNPG, 1–100 µM compound): did not induce any modification
concentration inhibiting glyoxal-induced BSA glycation (BSA [4]; 7 days): 5 µM
concentration from which glycated albumin is reduced (BSA [4]; [8]): 5 µM
concentration from which AGE formation is significantly inhibited (BSA [4]; [9]): 5 µM
concentration range with detectable reduction of carbonyl increase (BSA [5]): 10 to 100 µM
lowest concentration tested that inhibited carbonyl formation (BSA [5]): 5 µM
inhibition of carbonyl increase (BSA [5]): 15–25%
TEAC (trolox equivalent antioxidant capacity) (ORAC assay): 5.90 ± 0.23 µmol TE/µmol
IC50 (rat α–glucosidase; in vitro): > 400 µM

Structure (SMILES): CN(C)C(=N)NC(=N)N [metformin, 1,1–dimethylbiguanide]
DPPH scavenging effect (in words) ([1]; 0.1 to 500 µM): did not show any scavenging effect
reduction of GK peptide cross–linking (in words) [2]: not active
inhibition of AGE formation (in words) (BSA [4]; [8]): did not achieve any protection
inhibition of AGE formation (in words) (BSA [4]; [9]): did not show any significant inhibition
inhibition of AGE formation (in words) (BSA [4]; 1–100 µM, glucose, glyoxal and ribose (Figure 3)): did not show a significant effect
TEAC (trolox equivalent antioxidant capacity) (ORAC assay): 0.48 ± 0.10 µmol TE/µmol

Structure (SMILES): O=c1cc(-c2ccccc2)oc2cc(O)c(O)c(O)c12 [baicalein, 5,6,7–trihydroxyflavone]
pD2 (−log EC50) antiradical potency [1]: 4.91 ± 0.01
pD2 of AGE formation (GK cross–linking) ([2]; GK peptide + ribose): 4.3
IC50 ([2]; GK peptide + ribose, read-out: IC50 of AGE formation (GK cross–linking)): 49.7 ± 0.5 µM
change of cell viability (HT–29 cells [6]; 5 µM): −25 % of the control
IC50 (HT–29 cells [6]; Homo sapiens, HT-29, 0.1 to 50 µM, 24 h, read-out: pD2 for inhibition of HT–29 cell viability (converted)): 36.3 µM
inhibition of α–glucosidase activity ([3]; 0.035 µM α–glucosidase): about 90%
inhibition of α–glucosidase activity ([3]; 0.05 µM α–glucosidase): ~75%
type of enzyme inhibition ([3]; Lineweaver–Burk plot, 0.05 µM enzyme, 0.5–2.0 mM pNPG): mixed–type
Ki ([3]; mixed–model inhibition, 0.05 µM enzyme, 0.5–2.0 mM pNPG, read-out: inhibition constant (Ki)): 25.9 µM
IC50 [3, 10]: 18.1 µM
pD2 (−Log IC50) [3, 10]: 4.74 ± 0.02 ^a
IC50 [3, 11]: 24.1 µM
pD2 (−Log IC50) [3, 11]: 4.62 ± 0.04 ^a
IC50 [3, 12]: 51.6 µM
pD2 (−Log IC50) [3, 12]: 4.29 ± 0.07 ^a
IC50 [3, 13]: 555 µM
pD2 (−Log IC50) [3, 13]: 3.26 ± 0.26 ^b
concentration inhibiting glyoxal-induced BSA glycation (BSA [4]; 7 days): 10 µM
concentration from which glycated albumin is reduced (BSA [4]; [8]): 5 µM
concentration from which AGE formation is significantly inhibited (BSA [4]; [9]): 5 µM
concentration range with detectable reduction of carbonyl increase (BSA [5]): 10 to 100 µM
inhibition of carbonyl increase (BSA [5]): 15–25%
parent compound after incubation with cells (in words) (HT–29 cells [7]): no longer measurable
TEAC (trolox equivalent antioxidant capacity) (ORAC assay): 5.41 ± 0.33 µmol TE/µmol
Ki (rat α–glucosidase; ref 49): 14.6 µM
Ki (α–glucosidase; ref 53): 45 µM
Ki (α–glucosidase; ref 54): 44 µM

The next lines start with results.

pD2 (−log EC50) antiradical potency [1]: 4.77 ± 0.04
Structure (SMILES): O=C1O[C@H]([C@@H](O)CO)C(O)=C1O [ascorbic acid]
TEAC (trolox equivalent antioxidant capacity) (ORAC assay): 0.65 ± 0.01 µmol TE/µmol

pD2 (−log EC50) antiradical potency [1]: 4.38 ± 0.02
Structure (SMILES): CC(=O)N[C@@H](CS)C(=O)O [NAC, N–acetylcysteine]
TEAC (trolox equivalent antioxidant capacity) (ORAC assay): 1.45 ± 0.01 µmol TE/µmol
